Here are results for 2 molecules from ChEMBL document CHEMBL1159345, “Eudistomins W and X, two new beta-carbolines from the micronesian tunicate Eudistoma sp” (2003).

Molecules are shown by their SMILES.

Common to all, as to format: functional
What all share (settings): read-out: IZ

The subject of experiment [1] is Bacillus subtilis. The experiment is described as follows: Antimicrobial activity against Bacillus subtilis at 5 ug/disk by agar diffusion assay. Background: In agar diffusion tests the substance spreads into inoculated agar from a disc or well.
The test system of experiment [2] is Bacillus subtilis. Briefly: Antimicrobial activity against Bacillus subtilis at 10 ug/disk by agar diffusion assay.
The subject of experiment [3] is Staphylococcus aureus. The experiment is described as follows: Antimicrobial activity against Staphylococcus aureus at 5 ug/disk by agar diffusion assay.
Experiment [4] has as its system Staphylococcus aureus. Briefly: Antimicrobial activity against Staphylococcus aureus at 10 ug/disk by agar diffusion assay.
The test system of experiment [5] is Escherichia coli. The experiment is described as follows: Antimicrobial activity against Escherichia coli at 5 ug/disk by agar diffusion assay.
Experiment [6] concerns Escherichia coli. Briefly: Antimicrobial activity against Escherichia coli at 10 ug/disk by agar diffusion assay.
The subject of experiment [7] is Candida albicans. Briefly: Antimicrobial activity against Candida albicans at 5 ug/disk by agar diffusion assay.
Experiment [8] has as its system Candida albicans. Briefly: Antimicrobial activity against Candida albicans at 10 ug/disk by agar diffusion assay.

For `CN(C)C(Cc1ccccc1)c1nccc2c1[nH]c1ccc(O)cc12` (centres undefined) [EUDISTOMIN X], the zone of inhibition at 5 µg/disc in experiment [1] is 17 mm; in experiment [3] it was 11 mm; in experiment [5] it was 15 mm; in experiment [7], 17 mm. In addition, the zone of inhibition at 10 µg/disc was found to be 18 mm in experiment [2], 12 mm in experiment [4], 20 mm in experiment [6] and 18 mm in experiment [8].
Take `Oc1ccc2[nH]c3c([C@@H](O)Cc4ccccc4)nccc3c2c1` [EUDISTOMIN W]: the zone of inhibition at 10 µg/disc in experiment [8] worked out at 13 mm.
